Experimental findings from patent US9801960B2, “Probe for a biological specimen and labelling method and screening method using the probe” (CANON KABUSHIKI KAISHA, priority 2008, dated 2017) are described below.

Tested on in one data set: not listed separately
Nature of the data set: Storage stability of staining compound solution in DMSO. In kind it is physicochemical. The note with it: 10 ng/mL in DMSO, closed glass container, normal temperature, 1 month; rate of change of absorbance and fluorescence intensity. How it is done: A 10 ng/mL solution of each of the staining compounds of Labelled Examples 1 to 78 and Labelled Comparative Examples 1 and 2 in DMSO was prepared, charged into a well-closed container made of glass, and left to stand still at normal temperature for 1 month. The absorbance and the fluorescence intensity at the time of the start of a storage stability test were measured at a given wavelength, and their rates of change were examined (+++: rates of change of the absorbance and the fluorescence intensity are less than 5%, and thus, the storage stability is highly excellent; ++: rates of change of the absorbance and fluorescence intensity are 5 to 15%, and thus, the storage stability is excellent; and −: rates of change of the absorbance and fluorescence intensity are more than 15%, and thus, the storage stability is poor).
As for `COc1ccc(N2c3ccc(/C=c4/s/c(=C5/SC(=S)N(Cc6ccccc6)C5=O)n(CC(=O)O)c4=O)cc3C3CCCC32)cc1` (stereo not shown) [Dye 67], the Storage stability entry was “+++ (rates of change of the absorbance and the fluorescence intensity are less than 5%, and thus, the storage stability is highly excellent)”.

Consider `CCN1C(=O)/C(=c2\s/c(=C/c3ccc4c(c3)C3CCCC3N4c3ccc(OC)cc3)c(=O)n2CC)SC1=S` (stereo not shown) [Dye 68], for which the Storage stability result was “+++ (rates of change of the absorbance and the fluorescence intensity are less than 5%, and thus, the storage stability is highly excellent)”.

On to `C=CCN1C(=O)/C(=c2\s/c(=C/c3ccc4c(c3)C3CCCC3N4c3ccc(C=C(c4ccccc4)c4ccccc4)cc3)c(=O)n2CC(=O)OCC)SC1=S` (stereo not shown) [Dye 69], for which the Storage stability result was “+++ (rates of change of the absorbance and the fluorescence intensity are less than 5%, and thus, the storage stability is highly excellent)”.

Regarding `COc1ccc(N2c3ccc(/C=C/c4sc5ccccc5[n+]4CCC(=O)O)cc3C3CCCC32)cc1` (stereo not shown) [Dye 72], the Storage stability result is “+++ (rates of change of the absorbance and the fluorescence intensity are less than 5%, and thus, the storage stability is highly excellent)”.

Turning to `O=C(O)CC[n+]1c(/C=C/c2ccc3c(c2)C2CCCC2N3c2ccc(C=C(c3ccccc3)c3ccccc3)cc2)sc2ccccc21` (stereo not shown) [Dye 73], the Storage stability entry was “+++ (rates of change of the absorbance and the fluorescence intensity are less than 5%, and thus, the storage stability is highly excellent)”.

As for `COc1ccc(N2c3ccc(/C=C/C4=[N+](CCC(=O)O)c5ccccc5C4(C)C)cc3C3CCCC32)cc1` (stereo not shown) [Dye 76], the Storage stability result is “+++ (rates of change of the absorbance and the fluorescence intensity are less than 5%, and thus, the storage stability is highly excellent)”.

Turning to `O=C(O)CN1C(=O)/C(=C\c2ccc3c(c2)C2CCCC2N3c2ccc(C=C(c3ccccc3)c3ccccc3)cc2)SC1=S` (stereo not shown) [Dye 88], the Storage stability result was “+++ (rates of change of the absorbance and the fluorescence intensity are less than 5%, and thus, the storage stability is highly excellent)”.

Tested on in another data set: not listed separately
Nature of the data set: Excitation and fluorescence emission wavelength measurement. Further details: Stokes shift (λem − λex): unit not given here. Particulars: aqueous solution: 10 mg/mL solution in DMSO diluted 500-fold with purified water. The data set is classed as physicochemical. The protocol: It should be noted that the excitation wavelength and the fluorescence emission wavelength of the staining compound were determined by measuring an aqueous solution, which had been obtained by diluting 500-fold a 10 mg/mL solution of the staining compound in DMSO with purified water, with a fluorescence spectrophotometer FL 4500 manufactured by Hitachi High-Technologies Corporation.
Regarding `COc1ccc(N2c3ccc(/C=c4/s/c(=C5/SC(=S)N(Cc6ccccc6)C5=O)n(CC(=O)O)c4=O)cc3C3CCCC32)cc1` (stereo not shown) [Dye 67], the Excitation wavelength λex was 568 nm, the Fluorescence emission wavelength λem came out at 712 nm and the “Stokes shift (λem − λex)” value amounted to 144.

As to `CCN1C(=O)/C(=c2\s/c(=C/c3ccc4c(c3)C3CCCC3N4c3ccc(OC)cc3)c(=O)n2CC)SC1=S` (stereo not shown) [Dye 68], the Excitation wavelength λex is 602 nm, the Fluorescence emission wavelength λem was 667 nm and the “Stokes shift (λem − λex)” value came out at 65.

In the case of `C=CCN1C(=O)/C(=c2\s/c(=C/c3ccc4c(c3)C3CCCC3N4c3ccc(C=C(c4ccccc4)c4ccccc4)cc3)c(=O)n2CC(=O)OCC)SC1=S` (stereo not shown) [Dye 69], the Excitation wavelength λex was 600 nm, the Fluorescence emission wavelength λem was 656 nm and the “Stokes shift (λem − λex)” value came out at 56.

For `COc1ccc(N2c3ccc(/C=C/c4sc5ccccc5[n+]4CCC(=O)O)cc3C3CCCC32)cc1` (stereo not shown) [Dye 72], the Excitation wavelength λex stood at 583 nm, the Fluorescence emission wavelength λem came to 668 nm and the “Stokes shift (λem − λex)” value worked out at 85.

`O=C(O)CC[n+]1c(/C=C/c2ccc3c(c2)C2CCCC2N3c2ccc(C=C(c3ccccc3)c3ccccc3)cc2)sc2ccccc21` (stereo not shown) [Dye 73]: the Excitation wavelength λex came to 598 nm, the Fluorescence emission wavelength λem was 726 nm and the “Stokes shift (λem − λex)” value is 128.

For the compound `COc1ccc(N2c3ccc(/C=C/C4=[N+](CCC(=O)O)c5ccccc5C4(C)C)cc3C3CCCC32)cc1` (stereo not shown) [Dye 76], the Excitation wavelength λex was 592 nm, the Fluorescence emission wavelength λem is 671 nm and the “Stokes shift (λem − λex)” value came out at 79.

For `O=C(O)CN1C(=O)/C(=C\c2ccc3c(c2)C2CCCC2N3c2ccc(C=C(c3ccccc3)c3ccccc3)cc2)SC1=S` (stereo not shown) [Dye 88], the Excitation wavelength λex was found to be 535 nm, the Fluorescence emission wavelength λem worked out at 655 nm and the “Stokes shift (λem − λex)” value is 120.

A further data set has as its system Zebrafish juveniles. Nature of the data set: In vivo labelling of Zebrafish juveniles with probe for biological specimen. The note with it: 10 ng/mL in water, 1 hour, stereoscopic microscope. The arrangement: key to Staining property: +++: stained; −: no stained; key to Fluorescence sensitivity: +++: strongly observed; ++: moderately observed; +: weakly observed; −: no stained. How it is done:
Five juveniles of Zebrafish were put into one well of a well plate together with rearing water. After rearing water had been discharged, 1 mL of distilled water was added to the well, and a solution of a staining compound (1) in DMSO was further added thereto so as to achieve a concentration of 10 ng/mL, followed by gentle stirring (pipetting). Further, Egg Water was prepared by dissolving artificial seawater SEALIFE (manufactured by Marinetech Co., Ltd.) in distilled water at a concentration of 60 mg/L. After the whole had been left to stand for 1 hour, distilled water in the well was discharged and replaced by 1 mL of fresh Egg Water. In addition, such an operation that Egg Water was discharged and replaced by 1 mL of fresh Egg Water was repeated twice. One of the juveniles was taken out from the well onto a dish, supplemented with 100 μL of a 3% methylcellulose aqueous solution to fix the movement of the juvenile, and photographed with a stereoscopic microscope (MZ10F: manufactured by Leica Microsystems K.K.).
The same operation as that in Example 1 was performed except that the staining compound (1) used in Example 1 was changed to any one of the staining compounds described in Table 1.
The same operation as that in Example 1 was performed except that the staining compound (1) used in Example 1 was changed to any one of indocyanine green (ICG) and fluorescein.
The staining property of each of the staining compounds of Labelled Examples 1 to 78 and Labelled Comparative Examples 1 and 2 was visually evaluated (+++: stained and −: no stained).
The fluorescence intensity of each of the staining compounds of Labelled Examples 1 to 78 and Labelled Comparative Examples 1 and 2 was visually evaluated (+++: strongly observed, ++: moderately observed, +: weakly observed, and −: no stained).
For `COc1ccc(N2c3ccc(/C=c4/s/c(=C5/SC(=S)N(Cc6ccccc6)C5=O)n(CC(=O)O)c4=O)cc3C3CCCC32)cc1` (stereo not shown) [Dye 67], the “Site(s) to be labelled” value is recorded as “blood vessel”.

Consider `CCN1C(=O)/C(=c2\s/c(=C/c3ccc4c(c3)C3CCCC3N4c3ccc(OC)cc3)c(=O)n2CC)SC1=S` (stereo not shown) [Dye 68], for which the “Site(s) to be labelled” value is on record as “gastrointestinal tract”.

For `C=CCN1C(=O)/C(=c2\s/c(=C/c3ccc4c(c3)C3CCCC3N4c3ccc(C=C(c4ccccc4)c4ccccc4)cc3)c(=O)n2CC(=O)OCC)SC1=S` (stereo not shown) [Dye 69], the “Site(s) to be labelled” value is “gastrointestinal tract”.

Turning to `COc1ccc(N2c3ccc(/C=C/c4sc5ccccc5[n+]4CCC(=O)O)cc3C3CCCC32)cc1` (stereo not shown) [Dye 72], the “Site(s) to be labelled” value is “gallbladder and gastrointestinal tract”.

For the compound `O=C(O)CC[n+]1c(/C=C/c2ccc3c(c2)C2CCCC2N3c2ccc(C=C(c3ccccc3)c3ccccc3)cc2)sc2ccccc21` (stereo not shown) [Dye 73], the “Site(s) to be labelled” value is recorded as “nose”.

Consider `COc1ccc(N2c3ccc(/C=C/C4=[N+](CCC(=O)O)c5ccccc5C4(C)C)cc3C3CCCC32)cc1` (stereo not shown) [Dye 76], for which the “Site(s) to be labelled” value is “gastrointestinal tract and lower abdomen”.

As for `O=C(O)CN1C(=O)/C(=C\c2ccc3c(c2)C2CCCC2N3c2ccc(C=C(c3ccccc3)c3ccccc3)cc2)SC1=S` (stereo not shown) [Dye 88], the “Site(s) to be labelled” value is on record as “nose”.

The same data set, now with this note: 10 ng/mL, 1 hour, fluorescence intensity visually evaluated.
Consider `COc1ccc(N2c3ccc(/C=c4/s/c(=C5/SC(=S)N(Cc6ccccc6)C5=O)n(CC(=O)O)c4=O)cc3C3CCCC32)cc1` (stereo not shown) [Dye 67], for which the Fluorescence sensitivity entry is given as “+++”.

For `CCN1C(=O)/C(=c2\s/c(=C/c3ccc4c(c3)C3CCCC3N4c3ccc(OC)cc3)c(=O)n2CC)SC1=S` (stereo not shown) [Dye 68], the Fluorescence sensitivity result was “+++”.

For `C=CCN1C(=O)/C(=c2\s/c(=C/c3ccc4c(c3)C3CCCC3N4c3ccc(C=C(c4ccccc4)c4ccccc4)cc3)c(=O)n2CC(=O)OCC)SC1=S` (stereo not shown) [Dye 69], the Fluorescence sensitivity entry is on record as “+++”.

Turning to `COc1ccc(N2c3ccc(/C=C/c4sc5ccccc5[n+]4CCC(=O)O)cc3C3CCCC32)cc1` (stereo not shown) [Dye 72], the Fluorescence sensitivity entry is recorded as “+++”.

Consider `O=C(O)CC[n+]1c(/C=C/c2ccc3c(c2)C2CCCC2N3c2ccc(C=C(c3ccccc3)c3ccccc3)cc2)sc2ccccc21` (stereo not shown) [Dye 73], for which the Fluorescence sensitivity result is “+++”.

As to `COc1ccc(N2c3ccc(/C=C/C4=[N+](CCC(=O)O)c5ccccc5C4(C)C)cc3C3CCCC32)cc1` (stereo not shown) [Dye 76], the Fluorescence sensitivity result is “+++”.

`O=C(O)CN1C(=O)/C(=C\c2ccc3c(c2)C2CCCC2N3c2ccc(C=C(c3ccccc3)c3ccccc3)cc2)SC1=S` (stereo not shown) [Dye 88]: the Fluorescence sensitivity entry is listed as “+++”.

The same data set, now with this note: 10 ng/mL, 1 hour, visually evaluated.
With `COc1ccc(N2c3ccc(/C=c4/s/c(=C5/SC(=S)N(Cc6ccccc6)C5=O)n(CC(=O)O)c4=O)cc3C3CCCC32)cc1` (stereo not shown) [Dye 67], the Staining property entry was “+++”.

For `CCN1C(=O)/C(=c2\s/c(=C/c3ccc4c(c3)C3CCCC3N4c3ccc(OC)cc3)c(=O)n2CC)SC1=S` (stereo not shown) [Dye 68], the Staining property result was “+++”.

Regarding `C=CCN1C(=O)/C(=c2\s/c(=C/c3ccc4c(c3)C3CCCC3N4c3ccc(C=C(c4ccccc4)c4ccccc4)cc3)c(=O)n2CC(=O)OCC)SC1=S` (stereo not shown) [Dye 69], the Staining property result is listed as “+++”.

Take `COc1ccc(N2c3ccc(/C=C/c4sc5ccccc5[n+]4CCC(=O)O)cc3C3CCCC32)cc1` (stereo not shown) [Dye 72]: the Staining property result is given as “+++”.

In the case of `O=C(O)CC[n+]1c(/C=C/c2ccc3c(c2)C2CCCC2N3c2ccc(C=C(c3ccccc3)c3ccccc3)cc2)sc2ccccc21` (stereo not shown) [Dye 73], the Staining property entry is recorded as “+++”.

On to `COc1ccc(N2c3ccc(/C=C/C4=[N+](CCC(=O)O)c5ccccc5C4(C)C)cc3C3CCCC32)cc1` (stereo not shown) [Dye 76], for which the Staining property entry was “+++”.

On to `O=C(O)CN1C(=O)/C(=C\c2ccc3c(c2)C2CCCC2N3c2ccc(C=C(c3ccccc3)c3ccccc3)cc2)SC1=S` (stereo not shown) [Dye 88], for which the Staining property entry is “+++”.
